Target: T1, beta-lactamase (Escherichia coli, UniProt P62593, A182V/V82I)
T1 construct: HCV core N-terminal partial region (first 12 codons, about 36 nucleotides of core), then a 3-residue linker (Gly-Arg-Ala) and an added Met before His24 of the enzyme; expressed in transfected cells; host or cells: replicon-enhanced Huh-7 cells transfected with HCV replicon RNA encoding beta-lactamase
Assay: HCV replicon beta-lactamase assay: signal-to-background with clavulanic acid
Assay type: cell-based
Conditions: for Δ: 1.23 at 0.00 μM, Δ not defined; for S/B: 3.5 at 0.00 μM
Description: Clavulanic acid can be used to enhance the signal-to-background ratio from the beta-lactamase reporter system wherein, a larger signal to noise ratio facilitates detection of HCV replication inhibitors by better reflecting changes in the intracellular concentration of beta-lactamase.
Prior to use, frozen cells are thawed fresh in the morning of the assay or the day before and diluted in pre-warmed media to 40,000 cells/ml. Cell suspension (50 μl) is plated into 384-well micro-titer plates. The cells are allowed to recover for at least 6 hours at 37° C. in the plates before beginning an assay. 1 μl of 25 μM clavulanic acid in PBS and 0.25 μl of 500 μM test compounds in DMSO are added to the cells. The assay cell plates are then incubated for 24 hours at 37° C. To the assay plate, 10 μl of 6×CCF4/AM substrate in loading buffer is added with a Multidrop (Labsystems), and the plate incubated for 90 minutes at ambient temperature. The plate is then read from the bottom on a Teacn Spectrafluor Plus (340 nm excitation, 460 nm and 530 nm emissions).
In the example described below, clavulanic acid is present throughout the assay at a concentration that slightly reduces beta-lactamase activity instead of using it at high concentration that would complete inhibit beta-lactamase activity.
Table 2 provides results obtained using different concentrations of clavulanic acid and an HCV NS5B inhibitor.

SMILES: O=C(O)[C@H]1/C(=C/CO)O[C@@H]2CC(=O)N21 [clavulanic acid]
- Δ ([CA] 0.13 μM): 1.22
- S/B ([CA] 0.13 μM): 5.7
- Δ ([CA] 0.25 μM): 1.17
- S/B ([CA] 0.25 μM): 6.0
- Δ ([CA] 0.50 μM): 0.97
- S/B ([CA] 0.50 μM): 6.3
- Δ ([CA] 1.00 μM): 0.81
- S/B ([CA] 1.00 μM): 5.4

Source: patent US7786287B2, “Hepatitis C virus assay systems” (priority 2002, dated 2010)
